How the values were obtained:
barnacle cyprid larva = conditions: barnacles; cited from earlier work
algal growth = conditions: in vivo; cited from earlier work
[1] = stirring
Description: This example investigated the solubility of SELEKTOPE® (I-Tech AB, Mölndal, Sweden) in 1,4-butandiol (Brenntag Nordic AB, Malmö, Sweden). Vials were prepared according to Table 1 and left with stirring.
Vial number 4 was prepared and left with stirring in a same way as vial numbers 1-3.

tube worms = conditions: in vivo; cited from earlier work

dissolution in vial number 1 ([1]; 97 mg SELEKTOPE in 1.007 g 1,4-butandiol, after 24 hours): all SELEKTOPE® had dissolved
dissolution in vial number 2 ([1]; 206 mg SELEKTOPE in 1.012 g 1,4-butandiol, 48 hours after preparation): all SELEKTOPE® material had dissolved
dissolution in vial number 4 ([1]; 247 mg SELEKTOPE in 1.009 g 1,4-butandiol, 24 hours after preparation (same at 48 hours)): a few non-dissolved grains remaining
dissolution in vial number 3 ([1]; 303 mg SELEKTOPE in 1.024 g 1,4-butandiol, after about 2 hours (same after 24 and 48 hours)): still a lot of non-dissolved SELEKTOPE®
Structure (SMILES): Cc1cccc(C(C)c2c[nH]cn2)c1C (racemic) [Medetomidine, (±)-4,5-[1-(2,3-dimethylphenyl)ethyl)-1H-imidazole]
concentrations that impede larval settlement (barnacle cyprid larva): 1 to 10 nM
effect on algal growth (algal growth): no effect on algal growth
effect on other hard fouling, such as tube worms (tube worms): shown effect
